In patent publication US8420569B2, “Pesticidal mixtures” (BASF SE, priority 2006, dated 2013):

Legend:
Format in all cases: in vivo
[1] = test system: boll weevil (Anthonomus grandis); assay: control of boll weevil, insect diet with eggs in 24-well microtiter plates; conditions: sprayed onto insect diet, 5 days, egg and larval mortality
Experimental: (§1) The analysis of synergism or antagonism between the mixtures or compositions was determined using Colbys equation.
For evaluating control of boll weevil (Anthonomus grandis) the test unit consisted of 24-well-microtiter plates containing an insect diet and 20-30 A. grandis eggs.
The compounds or mixtures were formulated using a solution containing 75% water and 25% DMSO. Different concentrations of formulated compounds or mixtures were sprayed onto the insect diet at 20 μl, using a custom built micro atomizer, at two replications.
(§2) For experimental mixtures in these tests identical volumes of both mixing partners at the desired concentrations respectively, were mixed together.
After application, microtiter plates were incubated at 23+1° C., 50+5% RH for 5 days. Egg and larval mortality was then visually assessed.
In this test the compound I-2 and N-[2-(1,1,2,3,3,3-hexafluoropropoxy)-phenyl]-3-difluoromethyl-1-methyl-1H-pyrazole-4-carboxamide (compound 3.1), and N-(3′,4′,5′-trifluorobiphenyl-2-yl)-1-methyl-3-difluoromethyl-1H-pyrazole-4-carboxamide (compound 3.2) were used.

[2] = test system: vetch aphid (Megoura viciae); assay: control of vetch aphid through contact or systemic means, broad bean leaf disks in 24-well microtiter plates; conditions: sprayed on leaf disks, 5 days, mortality and fecundity
Experimental: as §1
For evaluating control of vetch aphid (Megoura viciae) through contact or systemic means the test unit consisted of 24-well-microtiter plates containing broad bean leaf disks.
The compounds or mixtures were formulated using a solution containing 75% water and 25% DMSO. Different concentrations of formulated compounds or mixtures were sprayed onto the leaf disks at 2.5 μl, using a custom built micro atomizer, at two replications.
as §2
After application, the leaf disks were air-dried and 5-8 adult aphids placed on the leaf disks inside the microtiter plate wells. The aphids were then allowed to suck on the treated leaf disks and incubated at 23+1° C., 50+5% RH for 5 days. Aphid mortality and fecundity was then visually assessed.
In this test the compound 1-2, and N-(3′,4′-dichloro-5-fluorobiphenyl-2-yl)-3-difluoro-methyl-1-methylpyrazole-4-carboxamide (compound 2.1), and 5-chloro-7-(4-methyl-piperidin-1-yl)-6-(2,4,6-trifluorophenyl)-[1,2,4]triazolo[1,5-a]pyrimidine (compound 2.2) were used.

[3] = test system: green peach aphid (Myzus persicae); assay: control of green peach aphid through systemic means, artificial diet under membrane in 96-well microtiter plates; conditions: pipetted into aphid diet, 3 days, mortality and fecundity
Experimental: as §1
For evaluating control of green peach aphid (Myzus persicae) through systemic means the test unit consisted of 96-well-microtiter plates containing liquid artificial diet under an artificial membrane.
The compounds or mixtures were formulated using a solution containing 75% water and 25% DMSO. Different concentrations of formulated compounds or mixtures were pipetted into the aphid diet, using a custom built pipetter, at two replications.
as §2
After application, 5 to 8 adult aphids were placed on the artificial membrane inside the microtiter plate wells. The aphids were then allowed to suck on the treated aphid diet and incubated at 23+1° C., 50+5% RH for 3 days. Aphid mortality and fecundity was then visually assessed.
In this test the compound 1-2, and 5-chloro-7-(4-methylpiperidin-1-yl)-6-(2,4,6-trifluoro-phenyl)-[1,2,4]triazolo[1,5-a]pyrimidine (compound 2.2) and N-[2-(1,1,2,3,3,3-hexa-fluoropropoxy)-phenyl]-3-difluoromethyl-1-methyl-1H-pyrazole-4-carboxamide (compound 3.1) were used.

Cn1cc(C(=O)Nc2ccccc2-c2cc(F)c(F)c(F)c2)c(C(F)F)n1 [3.2, N-(3′,4′,5′-trifluorobiphenyl-2-yl)-1-methyl-3-difluoromethyl-1H-pyrazole-4-carboxamide]
Average Control % ([1]; 200 ppm): 50%

Cn1cc(C(=O)Nc2ccc(F)cc2-c2ccc(Cl)c(Cl)c2)c(C(F)F)n1 [2.1, N-(3′,4′-dichloro-5-fluorobiphenyl-2-yl)-3-difluoro-methyl-1-methylpyrazole-4-carboxamide]
Average Control % ([2]; 1000 ppm): 0%

Cn1cc(C(=O)Nc2ccccc2OC(F)(F)C(F)C(F)(F)F)c(C(F)F)n1 (stereo not shown) [3.1, N-[2-(1,1,2,3,3,3-hexafluoropropoxy)-phenyl]-3-difluoromethyl-1-methyl-1H-pyrazole-4-carboxamide]
Average Control % ([1]; 40 ppm): 0% | Average Control % ([3]; 1000 ppm): 0%

CNC(=O)c1cc(C#N)cc(C)c1NC(=O)c1cc(Br)nn1-c1ncccc1Cl [I-2]
Average Control % ([2]; 0.5 ppm): 0% | Average Control % ([2]; 2.5 ppm): 0% | Average Control % ([1]; 0.5 ppm): 0% | Average Control % ([3]; 0.5 ppm): 0%

CC1CCN(c2c(-c3c(F)cc(F)cc3F)c(Cl)nc3ncnn23)CC1 [2.2, 5-chloro-7-(4-methyl-piperidin-1-yl)-6-(2,4,6-trifluorophenyl)-[1,2,4]triazolo[1,5-a]pyrimidine]
Average Control % ([2]; 40 ppm): 0% | Average Control % ([3]; 8 ppm): 0%
